Test [1] has as its system NOD mice. The experiment in a line: Islet insulitis scoring in NOD mice. It counts as in vivo, mouse. The settings on record: 14-week old pre-diabetic NOD mice. An excerpt: Head of pancreas of NOD mice was sampled, fixed in 4% buffered formalin, embedded in paraffin, and […] sections were stained with hematoxylin/eosin. Insulitis scores 0 to 4 were verified by the percentage of intra-islet mononuclear granulation (“0”, no intra-islet mononuclear cell infiltration; “1”, <25% of islet being infiltrated with mononuclear cell granulation; “2”, 25%-50%; “3”, 50-75%; “4”, >75%), in 30 to 40 islets per pancreas.

The test system of test [2] is STZ diabetic rats. The experiment in a line: Anti-diabetic efficacy in streptozotocin (STZ) diabetic rats (FBG, IPGTT, IPITT, fluid balance, insulin/glucagon content). It is filed as in vivo, rat. The protocol: Male Sprague-Dawley (SD) rats weighing 250-275 gr were fed ad libitum (Harlan Teklad 2018), had free access to water, and were kept on a 12:12 h light:dark cycle. Experimental type 1 diabetes (T1D) was induced in overnight fasted rats by a single intra-peritoneal injection of streptozotocin (STZ, 60 mg/kg body weight, Sigma Aldrich) freshly prepared in 0.1 M of cold citrate buffer (pH 4.5), followed by oral 10% glucose solution for the next 24 hours to overcome STZ-induced acute hypoglycemia. STZ diabetic rats (defined as having a fasting blood glucose (FBG) level higher than 300 mg/dl) were selected for further studies.
SHAM (control) rats were injected with 0.1 M of cold citrate buffer (pH 4.5). STZ diabetic or SHAM rats were dosed twice daily by gavage (orally) with 1% CMC (Sigma Aldrich C5678), or with HOOC—C(CH3)2—(CH2)12—C(CH3)2—COOH (2,2,15,15-tetramethylhexadecane-1,16-dioic acid) also termed herein “MEDICA16αα”, “Medica16αα” or M16αα(15 mg/kg body weight) suspended in 1% CMC, or injected intraperitoneal (i.p.) with Neutral Protamine Hagedorn (NPH) insulin (3 u/kg body weight b.i.d), as indicated.
(§1) Administering a combination of Medica16αα and insulin was performed by treating STZ diabetic rats (FBG >300 mg/dl) with oral MEDICA16αα(15 mg/kg b.i.d) for five consecutive days, then MEDICA16αα-responsive rats were further treated with MEDICA16αα(15 mg/kg b.i.d) for 10 additional consecutive days (“STZ/MEDICA Res”), and MEDICA16αα non-responsive rats (FBG >250 mg/dl) were further treated for 10 additional consecutive days with either insulin Neutral Protamine Hagedorn (NPH) (3 u/kg b.i.d subcutaneously) (“STZ/NPH”), or with insulin NPH (3 u/kg b.i.d subcutaneously in combination with oral MEDICA16αα(15 mg/kg b.i.d) (“STZ/MEDICA NPH”).
Tail vein FBG was verified daily by a glucometer (Glucometer®, Accu-Check® Performa, Roche Diagnostics). Urine secretion, food and water consumption were measured in standard metabolic cages (Tecniplast™ Metabolic Cage Systems for Rodents) for 48 hour periods. Samples were collected and recorded every 12 hour.
Overnight fasted rats were injected i.p (1 gr glucose/kg bw) with 20% dextrose solution (Teva Medical). Tail vein blood was sampled on 0, 30, 60, 90 and 120 minutes following glucose injection.
Fasted rats (5 hours fast) were injected i.p (2 u/kg bw) with HumulinR insulin (Eli Lilly). Tail blood glucose levels were measured by glucometer at 0, 15, 30, 60, and 120 min following insulin injection.
(§2) Pancreas and plasma insulin and glucagon content were determined by insulin (Millipore, Cat #RI-13K) and glucagon (Millipore, Cat # GL-32K) radioimmunoassay (RIA) kits. cAMP levels were measured by cAMP kit (Arbor Assays, DetectX Cat # K019-H1).

Test [3] deals with hepatic gluconeogenesis. The experiment in a line: Suppression of hepatic gluconeogenesis in STZ diabetic rats (RT-PCR, Western blot, cAMP kit). It counts as in vivo, rat. The protocol: as §1
Sampled frozen tissue was homogenized (Polytron) in lysis buffer (50 mM Tris HCl, pH 8.0, 1% Triton X-100, 1 mM EGTA, 1 mM EDTA, 150 mM NaCl, 5 mM NaPPi, 50 mM NaF, 1 mM PMSF, 1 mM Na Vanadate, 40 nM bpVfan and protease inhibitor cocktail (Sigma)), and centrifuged for 15 min at 12,500 rpm.
Protein lysates were prepared in sodium dodecyl sulfate (SDS) sample buffer (62 mM Tris (pH 6.8), 2.3% SDS, […] mercaptoethanol, 10% glycerol), and were subjected to SDS-PAGE, electro-transferred onto cellulose nitrate membranes (Schleicher & Schuell) and probed with the indicated first antibody, followed by HRP-labeled second antibody. Protein concentration was determined by BCA (Thermo Scientific). Bands were detected by ECL, and the intensity of individual bands was determined by densitometry using ImageJ 1.48 v software.
Sampled frozen tissue was homogenized (Polytron) in lysis buffer (50 mM Hepes (pH 7.4), 150 mM NaCl, 10% Glycerol, 1.5 mM MgCl2, 1 mM EGTA, 1% Triton, 50 mM β-glycerolphosphate, 25 mM NaF, 1 mM Na-vanadate, 40 nM bpVphen, protease inhibitor mix (Sigma) and 17.5 mg/ml octyl beta-D-glucopyranoside (Sigma)). Lysates were kept on ice for 30 min and centrifuged at 12000 rpm for 15 min. Lysates ([…]) were incubated for 4 h with protein A/G beads (Santa Cruz Biotechnology) pre-loaded with the indicated antibody. The immune-precipitate was rinsed 3 times with washing buffer (20 mM Hepes (pH 7.4), 150 mM NaCl, 0.1% Tx-100, 10% glycerol), re-suspended in SDS sample buffer, boiled for 8 min, and analyzed by SDS-PAGE.
Total RNA was prepared using the TRI reagent (Sigma Aldrich). First-strand cDNA used as template was synthesized by reverse transcription using oligo(dT) as primer and the Reverse-iTMAX First Strand Kit (ABgene, Epson). Glucose-6-phosphatase (G6Pase) and phosphoenolpyruvate carboxykinase (PEPCK) transcripts normalized by tubulin were quantified by real-time PCR (Rotor Gene RG-3000A) using SYBER green MasterMix (Absolute Syber Green ROX Mix, ABgene) and the following primers: […]
as §2
On the technique in general: A western blot detects proteins with antibodies after separation by electrophoresis.

Data on 1 compound can be found in patent publication US10512624B2, “Long-chain amphipathic dicarboxylic acids for treatment of diabetes type-1” (Syndromex Ltd., priority 2016, dated 2019).

Take `CC(C)(CCCCCCCCCCCCC(C)(C)C(=O)O)C(=O)O` [MEDICA16αα, 2,2,15,15-tetramethylhexadecane-1,16-dioic acid]: the “islet insulitis rankings versus non-treated” value in test [1] is listed as “essentially similar”. In test [2] (STZ diabetic rats, stand-alone treatment), the “pancreatic and/or plasma insulin and glucagon content” value was “not accounted for by significant increase in pancreatic and/or plasma insulin, neither by significant decrease in glucagon content”. Further, the “fluid consumption and excretion” value in test [2] (STZ/MEDICA Res rats, stand-alone) was “partial decrease”. Moreover, the “blood glucose level in i.p glucose tolerance test (IPGTT)” value in test [2] (STZ/MEDICA Res rats, stand-alone 15 mg/kg b.i.d) was “amelioration in blood glucose level”. In test [2] (oral 15 mg/kg b.i.d, 10 consecutive days, stand-alone (no insulin), all-or-none response), the “STZ diabetic rats in which FBG was normalized (FBG<250 mg/dL)” value is on record as “about 40%”. Moreover, the “treated STZ diabetic rats that remained non responsive (FBG >250 mg/dl)” value in test [2] (oral 15 mg/kg b.i.d, stand-alone) was found to be 60%. In addition, in test [3], the “hepatic cAMP levels” value was “suppressing hepatic cAMP levels” and the “hepatic phospho-ACC(Ser79) (AMPK activation)” value is “phosphorylation of its downstream ACC(Ser79) substrate”.
